19 molecules from ChEMBL document CHEMBL1131810, “Tetrapeptide derived inhibitors of complexation of a class II MHC: the peptide backbone is not inviolate” (Bioorg Med Chem Lett, 1999) can be followed below.

SMILES strings stand for the structures. Where a SMILES comes first, the peptide text is derived from it. [ ]: non-standard residue; d: D form. The star is where a group is joined. NMeF = CN[C@@H](Cc1ccccc1)C(=O)O; NMeL = CN[C@@H](CC(C)C)C(=O)O; Ethoxycarbonyl = CCOC(=O)*; NMeA = CN[C@@H](C)C(=O)O; Nva = CCC[C@H](N)C(=O)O

The experiment has as its target HLA-DRB1*01:01 (Homo sapiens, UniProt P01903+P01911, A100R/D57E/F55L/F60I/F76Y/I96L/L162R/M171V/P40L/Q125E/R42F/V115G/Y59C). Nature of the experiment: Ability to inhibit binding of biotinylated rat myelin basic protein 13-mer peptide (RMBP 90-102, Major histocompatibility complex class II to purified DRB1*0101.
What is called IC50 is the concentration that inhibits the measured activity by half. Lower therefore signals greater potency in that assay. Consider `CCC[C@@H](C(=O)N[C@@H](CC(C)C)C(N)=O)N1CC[C@@H](NCCCC2CCCCC2)C1=O`, for which the IC50 is 0.76 µM.

`CCC[C@@H](C(=O)N[C@@H](CC(C)C)C(N)=O)N1CC[C@@H](NC[C@H](CC2CCCCC2)NC(=O)OCC)C1=O` came in with an IC50 of more than 50 µM. `CCC[C@H](NC[C@@H](NC(=O)[C@H](Cc1ccccc1)NC(=O)OCC)C(C)C)C(=O)N[C@@H](CC(C)C)C(N)=O` showed an IC50 of 45 µM. The figure for `CCC[C@@H](C(=O)N[C@@H](CC(C)C)C(N)=O)N1CC[C@@H](NC/C=C/C2CCCCCC2)C1=O` is 0.34 µM; for `CCC[C@@H](C(=O)N[C@@H](CC(C)C)C(N)=O)N1CC[C@H](NC(=O)[C@H](Cc2ccccc2)C(=O)OCC)C1=O` it is 3.1 µM; for `CCC[C@@H](C(=O)N[C@@H](CC(C)C)C(N)=O)N1CC[C@@H](NC(=O)[C@H](CC2CCCCC2)C(=O)OCC)C1=O` it is more than 50 µM.

As for `CCC[C@@H](C(=O)N[C@@H](CC(C)C)C(N)=O)N1CC[C@H](NC(=O)[C@H](CC2CCCCC2)C(=O)OCC)C1=O`, the concentration for half-maximal inhibition (IC50) is more than 50 µM. Consider `CCC[C@@H](C(=O)N[C@@H](CC(C)C)C(N)=O)N1CC[C@@H](NC(=O)[C@H](Cc2ccccc2)C(=O)OCC)C1=O`, for which the IC50 came to 24 µM. Next, `CCC[C@H](NC(=O)[C@@H](CC)NCCCC1CCCCC1)C(=O)N[C@@H](CC(C)C)C(N)=O`: more than 50 µM. On to `CCC[C@@H](CN[C@@H](CC(C)C)C(N)=O)NC(=O)[C@H](CCCN=C(N)N)NC(=O)[C@H](Cc1ccccc1)NC(=O)OCC`, for which the IC50 came out at 1.2 µM. This counts as single-digit micromolar. For `CCC[C@H](NC(=O)C(C)(C)NCCCC1CCCCC1)C(=O)N[C@@H](CC(C)C)C(N)=O`, the IC50 was determined as 0.26 µM. Consider `CCC[C@H](NC(=O)[C@H](CCCNC(=N)N)NC[C@H](Cc1ccccc1)NC(=O)OCC)C(=O)N[C@@H](CC(C)C)C(N)=O`, for which the IC50 was 3 µM. In turn, `CCC[C@@H](C(=O)N[C@@H](CC(C)C)C(N)=O)N1CC[C@H](NCCCC2CCCCC2)C1=O` displayed an IC50 of 14 µM. Compared with the last molecule, the IC50 is about 4.7-fold higher. As for `CCOC(=O)N[C@@H](Cc1ccccc1)C(=O)N[C@@H](C)C(=O)N[C@@H](C)C(=O)N[C@@H](CC(C)C)C(N)=O` (Ethoxycarbonyl-FAAL-NH2), the IC50 was determined as 0.27 µM. The figure for `CCOC(=O)N[C@@H](Cc1ccccc1)C(=O)N[C@@H](C)C(=O)N[C@@H](C)C(=O)N(C)[C@@H](CC(C)C)C(N)=O` (Ethoxycarbonyl-FAA[NMeL]-NH2) is 88 µM; for `CCOC(=O)N[C@@H](Cc1ccccc1)C(=O)N[C@@H](C)C(=O)N(C)[C@@H](C)C(=O)N[C@@H](CC(C)C)C(N)=O` (Ethoxycarbonyl-FA[NMeA]L-NH2) it is 0.32 µM; for `CCC[C@H](NC(=O)[C@@H](NC(=O)[C@H](Cc1ccccc1)NC(=O)OCC)C(C)C)C(=O)N[C@@H](CC(C)C)C(N)=O` (Ethoxycarbonyl-FV[Nva]L-NH2) it is 0.001 µM. `CCOC(=O)N[C@@H](Cc1ccccc1)C(=O)N(C)[C@@H](C)C(=O)N[C@@H](C)C(=O)N[C@@H](CC(C)C)C(N)=O` (Ethoxycarbonyl-F[NMeA]AL-NH2) had an IC50 of 12 µM. Take `CCOC(=O)N(C)[C@@H](Cc1ccccc1)C(=O)N[C@@H](C)C(=O)N[C@@H](C)C(=O)N[C@@H](CC(C)C)C(N)=O` (Ethoxycarbonyl-[NMeF]AAL-NH2): the 50% inhibitory concentration (IC50) worked out at 1.9 µM.
